Measurements taken from EP1695704A1, “Derivatives of aryl (or heteroaryl) azolylcarbinols for the treatment of fibromyalgia” (LABORATORIOS DEL DR. ESTEVE, S.A., priority 2005, dated 2006).

Experiments:
Type in all cases: in vivo
[1] = tested on: Unilateral ligature of the sciatic nerve; assay: Neuropathic pain, Bennet model, mechanical response thresholds; details: rats with sciatic nerve ligature; dose-effect study; Figure 1
Excerpt: Neuropathic Pain - Dose-effect study of Example 1 Phase I (Bennet model): Unilateral ligature of the sciatic nerve (mechanical response thresholds)
According to the Model described by Bennet (Bennet and Xie, Pain 1988, 33, 87-107) a well established model for neuropathic pain, rats were operated with the following surgical procedure,
(§1) Rats were anaesthesized using Pentobarbital. Then the skin was incised. Following that a sciatic nerve ligature was placed and the incision was closed with silk thread.
(§2) In Sham-operated control animals the identical surgical procedures were followed, but the nerve was not ligatured.

[2] = tested on: Unilateral ligature of the sciatic nerve; assay: Neuropathic pain, Bennet model, thermal response thresholds; details: rats with sciatic nerve ligature; dose-effect study; Figure 2
Excerpt: Neuropathic Pain - Dose-effect study of Example 1 Phase I (Bennet model): Unilateral ligature of the sciatic nerve (thermal response thresholds)
According to the Model described by Bennet (Bennet and Xie, Pain 1988, 33, 87-107) a well established model for neuropathic pain, rats were operated with the following surgical procedure:
as §1, §2

[3] = tested on: ptosis by reserpine in mice; assay: Depression, Reserpine test; details: Mus musculus, po
Protocol: Depression, Reserpine test
Mice were prepared according to the Model described by C.J.E. Niemegeers "Antagonism of Reserpine-like activity" in "Antidepressants", Ed. by S. Fielding, Futura Publishing Co., New York 1975. Pags 73-98 and Garattini S. et al. "Antagonists of Reserpine-induced eyelid ptosis" Med.Exp. 3 : 315-320 (1960):
The inhibition shown by the compound according to example 1 in ptosis by reserpine in mice was: […]

Mice = assay: Depression, Mice tail Suspension; details: Mus musculus, po
Protocol: Depression, Mice tail Suspension
Mice were prepared according to the Model described by
The inhibition shown by the compound according to example 1 was: […]

## CN(C)CCOC(c1ccccc1)c1ccnn1C (racemic) [Example 1, (±)-5-{α-[2-(dimethylamino)ethoxy]benzyl}-1-methyl-1H-pirazole]
[1]
  effect on vocalization threshold using a mechanical stimulus: clear dose-dependent effect
[2]
  effect on struggle latency in a low temperature thermal response threshold: clear dose-dependent effect
[3]
  ED50: 26.2 mg/kg
[3]; dose 10 mg/kg p.o.
  inhibition at 10 mg/kg: 21%
[3]; dose 20 mg/kg p.o.
  inhibition at 20 mg/kg: 47%
[3]; dose 40 mg/kg p.o.
  inhibition at 40 mg/kg: 75%
[3]; dose 80 mg/kg p.o.
  inhibition at 80 mg/kg: 75%
[3]; dose 160 mg/kg p.o.
  inhibition at 160 mg/kg: 71%
Mice
  ED50: 17 mg/kg
Mice; dose 10 mg/kg p.o.
  inhibition at 10 mg/kg: 38%
Mice; dose 20 mg/kg p.o.
  inhibition at 20 mg/kg: 54%
Mice; dose 40 mg/kg p.o.
  inhibition at 40 mg/kg: 71%
Mice; dose 80 mg/kg p.o.
  inhibition at 80 mg/kg: 70%
